PMC6001375, “CLERK is a novel receptor kinase required for sensing of root-active CLE peptides in Arabidopsis” (Development (Cambridge, England), 2018)
“Also recorded” adds a separate entry of the source.

What was measured:
[1] = tested on: CLERK ectodomain (CLERK-ECD); assay: Isothermal titration calorimetry, CLERK ectodomain; assay type: binding, Arabidopsis thaliana; conditions: ITC, 25°C, 20 mM citrate (pH 5.0), 150 mM NaCl; 400 µM peptide into 30 µM CLERK-ECD
Method: Isolation of recombinant proteins and analytical gel filtrations were carried out as described previously ([Hazak et al., 2017]) with small adjustments. The coding sequences for BAM1-ECD (amino acids 20-637), BAM3-ECD (30-651), PXY-ECD (30-647), NIK1-ECD (32-248), NIK2-ECD (33-248), NIK3-ECD (26-238), CLERK-ECD (28-236) and At5G63710-ECD (51-224) were amplified from Arabidopsis thaliana cDNA using PfuX7 polymerase. All ECD-coding sequences were then cloned into a modified pFAST-BAC1 vector (Geneva Biotech) by GIBSON cloning, resulting in the addition of the azurocidin signal peptide sequence to the 5′-end, and of a 2×-STREP-9×HIS tag to the 3′-end of the ECD sequences. These plasmids, after being confirmed by sequencing, were transformed into Escherichia coli DH10MultiBac (Geneva Biotech) followed by the extraction of the resulting bacmids. Transfection of the bacmids into Spodoptera frugiperda Sf9 cells with Profectin (AB Vector) was carried out to produce and amplify the respective virus. Recombinant secreted expression of the proteins was carried out by addition of virus to Trichoplusia ni Tnao38 cells to reach a viral multiplicity of 1 and incubation of the cells for 3 days. […] Concentrations of the pure proteins were assessed by measuring their absorbance at 280 nm (NanoDrop Lite; Thermo Scientific) and subsequent correction with their respective extinction coefficient. […]

Arabidopsis root growth = assay: Root growth response (CLE resistance/sensitivity) of wild type and mutant seedlings; assay type: in vivo, Arabidopsis thaliana; conditions: for Root growth response of clerk mutants: clerk mutants vs Col-0 (and bam3 for CLE45), n=13-25 (Fig. 2B), n=16-19 (Fig. 2A)
Excerpt: Arabidopsis thaliana Columbia-0 (Col-0) was used as the wild type for phenotypic analyses and is the background of all mutants investigated: ops-2 (SALK_139316); brx-2 ([Rodrigues et al., 2009]); bam3-2 (SALK_044433) ([DeYoung et al., 2006]); clerk-3 (SALK_066568); ops^E319K ([Rodriguez-Villalon et al., 2014]); makr5 ([Kang and Hardtke, 2016]); nik1 (SALK_017538C); nik2 (SALK_044363C); and sark (SALK_111290), clv2/rlp10-1 (GK-686A09) and crn-10 ([Hazak et al., 2017]). Seeds were surface sterilized, germinated and grown vertically under continuous light at 22°C on 0.5× Murashige and Skoog media supplemented with 1% agar and with or without 0.3% sucrose.
CLE peptides were obtained from a commercial supplier (Genscript), synthesized at >80% purity, diluted in water and used at final concentration as indicated. For root length measurements, plates were scanned at 600 dpi resolution and seedling root length was determined using the Simple Neurite Tracer plug-in ([Longair et al., 2011]) for Fiji software ([Schindelin et al., 2012]).
M2 mutagenized seeds ([Kalmbach et al., 2017]) were screened in tissue culture on media complemented with 10 nM CLE26 peptide. Seedlings with CLE26-resistant root growth were transferred to soil and the phenotype was confirmed in the M3 generation before backcrossing to Col-0 wild type. The causative mutation for CLE26 resistance was then determined by whole-genome sequencing of bulked segregants as described previously ([Kang and Hardtke, 2016]).

Row | Direct binding to CLERK ectodomain [1] | Sequence | Root growth, 10 confirmed CLE26-resistant mutants (Arabidopsis root growth; 100 nM CLE26, vs Col-0 wild type, ANOVA, P<0.001, n=8-21) | Sensitivity of clerk plants carrying CLERK::CLERK-GFP (Arabidopsis root growth; Fig. 1E) | Root growth response, clerk T-DNA insertion mutant (SALK_066568) (Arabidopsis root growth; Fig. 1E, n=28-47) | Response of brx crn double mutants (Arabidopsis root growth; Fig. S4) | Requirement of CLERK for sensing in the root (Arabidopsis root growth; clerk mutants) | Root growth response of clerk mutants (Arabidopsis root growth) | Response of clerk brx and clerk ops double mutants (Arabidopsis root growth; n=2-25) | Response of combinations of clerk with bam3, makr5 or ops^E319K (Arabidopsis root growth; n=2-25) | CLE sensitivity of clerk mutants with transgenic CLERK wild-type copy (Arabidopsis root growth; original and T-DNA clerk mutants, Fig. 1E, n=28-47) | Sensing with SARK or NIK1 expressed under the CLERK promoter (Arabidopsis root growth; several independent transgenic lines, n=21-43)
1 | no direct binding | RKVPRGPDPIHN [CLE26] | substantially resistant; also recorded: statistically significantly different when compared with Col-0 wild type | full sensitivity | strong CLE26 resistance | still CLE26 sensitive | CLERK is required for CLE26 sensing in the root | resistant | both clerk brx and clerk ops were CLE26 sensitive | additive CLE26 resistance | could be recovered | both SARK and NIK1 could replace the CLERK protein to sense CLE26
2 | no direct binding | RRVRRGSDPIHN [CLE45] | – | – | – | – | – | resistant | – | – | – | –
